Source: the supplement of paper PMC6045584
± gives the standard deviation of the averaged measurements.

Key:
CARBOPLATIN [1] = compound: T1, O=C(O)C1(C(=O)O)CCC1.[NH2-].[NH2-].[Pt+2] [CARBOPLATIN]; assay: area under dose-response curve of surviving fraction (unscaled, Aref=0) (surviving fraction x log10(nM)); higher = more resistant; details: exposure time: 5 days; dose range 0.5-1000 nM
Summary of the method: (§1)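 Inhibitor was applied to tumour cell lines at eight concentrations (0.5 to 1000 nM) for five days in 384-well plates. Luminescence from CellTiter-Glo, scaled to DMSO-only wells, gave surviving fractions in three screens per line, and these were fitted by 3-parameter logistic regression with the drc R package. The area under the curve is an unscaled activity area. Aref was 0, and dose was on a log10 scale.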

PACLITAXEL [2] = compound: T2, CC(=O)O[C@H]1C(=O)[C@@]2(C)[C@H]([C@H](OC(=O)c3ccccc3)[C@]3(O)C[C@H](OC(=O)[C@H](O)[C@@H](NC(=O)c4ccccc4)c4ccccc4)C(C)=C1C3(C)C)[C@]1(OC(C)=O)CO[C@@H]1C[C@@H]2O [PACLITAXEL]; assay: as above; details: exposure time: 5 days; dose range 0.5-1000 nM
Summary of the method: as §1

[3] = compound: CC(=O)NCC(=O)N1[C@@H]2CC[C@H]1c1ccc(Nc3ncc(C(F)(F)F)c(NC4CCC4)n3)cc12; assay: as above; details: exposure time: 5 days; dose range 0.5-1000 nM
Summary of the method: as §1

CAMPTOTHECIN [4] = compound: T3, CC[C@@]1(O)C(=O)OCc2c1cc1n(c2=O)Cc2cc3ccccc3nc2-1 [CAMPTOTHECIN]; assay: as above; details: exposure time: 5 days; dose range 0.5-1000 nM
Summary of the method: as §1

YM155 [5] = compound: T4, COCC[n+]1c2c(n(Cc3cnccn3)c1C)C(=O)c1ccccc1C2=O [YM155]; assay: as above; details: exposure time: 5 days; dose range 0.5-1000 nM
Summary of the method: as §1

[6] = compound: CC(=O)c1c(C)c2cnc(Nc3ccc(N4CCNCC4)cn3)nc2n(C2CCCC2)c1=O; assay: as above; details: exposure time: 5 days; dose range 0.5-1000 nM
Summary of the method: as §1

OSI-906 [7] = compound: T5, C[C@]1(O)C[C@@H](c2nc(-c3ccc4ccc(-c5ccccc5)nc4c3)c3c(N)nccn32)C1 [OSI-906]; assay: as above; details: exposure time: 5 days; dose range 0.5-1000 nM
Summary of the method: as §1

CARBOPLATIN [8] = compound: T1, CARBOPLATIN; assay: surviving fraction relative to DMSO-only wells; higher = less growth inhibition; details: exposure time: 5 days
Summary of the method: (§2)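 Log-phase tumour cells were seeded at 250–500 per well in 384-well plates and, from 24 hours after seeding, exposed continuously for five days to inhibitors at 0.5, 1, 5, 10, 50, 100, 500 and 1000 nM. Surviving fraction is CellTiter-Glo luminescence normalised to the median of DMSO-only wells. Luminescence was measured after 10 minutes at room temperature, and only lines screened three times with replicate Pearson r >0.7 and median Z' >0.3 were kept.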

PACLITAXEL [9] = compound: T2, PACLITAXEL; assay: as above; details: exposure time: 5 days
Summary of the method: as §2

[10] = compound: CC(=O)NCC(=O)N1[C@@H]2CC[C@H]1c1ccc(Nc3ncc(C(F)(F)F)c(NC4CCC4)n3)cc12; assay: as above; details: exposure time: 5 days
Summary of the method: as §2

CAMPTOTHECIN [11] = compound: T3, CAMPTOTHECIN; assay: as above; details: exposure time: 5 days
Summary of the method: as §2

YM155 [12] = compound: T4, YM155; assay: as above; details: exposure time: 5 days
Summary of the method: as §2

CELECOXIB = compound: Cc1ccc(-c2cc(C(F)(F)F)nn2-c2ccc(S(N)(=O)=O)cc2)cc1 [CELECOXIB]; assay: as above; details: exposure time: 5 days
Summary of the method: as §2

GEFITINIB = compound: COc1cc2ncnc(Nc3ccc(F)c(Cl)c3)c2cc1OCCCN1CCOCC1 [GEFITINIB]; assay: as above; details: exposure time: 5 days
Summary of the method: as §2

[13] = compound: CC(=O)c1c(C)c2cnc(Nc3ccc(N4CCNCC4)cn3)nc2n(C2CCCC2)c1=O; assay: as above; details: exposure time: 5 days
Summary of the method: as §2

OSI-906 [14] = compound: T5, OSI-906; assay: as above; details: exposure time: 5 days
Summary of the method: as §2

For HT1080 SOFT TISSUE, which “area under dose-response curve” value (CARBOPLATIN [1]) is on record?
The value was 3.51.

What about the “area under dose-response curve” value (PACLITAXEL [2]) of the same test system?
The value was 0.5.

And the “area under dose-response curve” value [3]?
The value was 2.39.

What about the “area under dose-response curve” value (CAMPTOTHECIN [4]) of the same test system?
The value was 1.51.

What about the “area under dose-response curve” value (YM155 [5]) of the same test system?
The value was 1.04.

And the “area under dose-response curve” value [6]?
Its value is 3.28.

What about the “area under dose-response curve” value (OSI-906 [7]) of the same test system?
The value was 3.17.

And the surviving fraction (CARBOPLATIN [8]; 0.5 nM)?
Its surviving fraction is 1.07 ± 0.024.

What about the surviving fraction (CARBOPLATIN [8]; 1 nM) of the same test system?
The surviving fraction was 1.1 ± 0.011.

What about the surviving fraction (CARBOPLATIN [8]; 5 nM) of the same test system?
Its surviving fraction is 1.09 ± 0.051.

What about the surviving fraction (CARBOPLATIN [8]; 10 nM) of the same test system?
Its surviving fraction is 1.09 ± 0.013.

What about the surviving fraction (CARBOPLATIN [8]; 50 nM) of the same test system?
Its surviving fraction is 1.03 ± 0.023.

What about the surviving fraction (CARBOPLATIN [8]; 100 nM) of the same test system?
Its surviving fraction is 1.04 ± 0.044.

And the surviving fraction (CARBOPLATIN [8]; 500 nM)?
Its surviving fraction is 1.03 ± 0.058.

What about the surviving fraction (CARBOPLATIN [8]; 1000 nM) of the same test system?
Its surviving fraction is 1.06 ± 0.062.

And the surviving fraction (PACLITAXEL [9]; 0.5 nM)?
The surviving fraction was 0.772 ± 0.034.

What about the surviving fraction (PACLITAXEL [9]; 1 nM) of the same test system?
Its surviving fraction is 0.533 ± 0.0091.

What about the surviving fraction (PACLITAXEL [9]; 5 nM) of the same test system?
The surviving fraction was 0.133 ± 0.019.

And the surviving fraction (PACLITAXEL [9]; 10 nM)?
The surviving fraction was 0.0517 ± 0.0035.

What about the surviving fraction (PACLITAXEL [9]; 50 nM) of the same test system?
The surviving fraction was 0.0427 ± 0.0031.

What about the surviving fraction (PACLITAXEL [9]; 100 nM) of the same test system?
The surviving fraction was 0.031 ± 0.0017.

What about the surviving fraction (PACLITAXEL [9]; 500 nM) of the same test system?
Its surviving fraction is 0.0293 ± 0.0025.

What about the surviving fraction (PACLITAXEL [9]; 1000 nM) of the same test system?
The surviving fraction was 0.0317 ± 0.00058.

And the surviving fraction ([10]; 0.5 nM)?
Its surviving fraction is 0.998 ± 0.035.

And the surviving fraction ([10]; 1 nM)?
Its surviving fraction is 0.983 ± 0.011.

And the surviving fraction ([10]; 5 nM)?
The surviving fraction was 0.964 ± 0.05.

And the surviving fraction ([10]; 10 nM)?
The surviving fraction was 0.961 ± 0.031.

And the surviving fraction ([10]; 50 nM)?
Its surviving fraction is 0.66 ± 0.0067.

What about the surviving fraction ([10]; 100 nM) of the same test system?
The surviving fraction was 0.404 ± 0.011.

And the surviving fraction ([10]; 500 nM)?
Its surviving fraction is 0.303 ± 0.004.

What about the surviving fraction ([10]; 1000 nM) of the same test system?
The surviving fraction was 0.281 ± 0.0093.

And the surviving fraction (CAMPTOTHECIN [11]; 0.5 nM)?
The surviving fraction was 0.956 ± 0.017.

And the surviving fraction (CAMPTOTHECIN [11]; 1 nM)?
Its surviving fraction is 0.925 ± 0.027.

What about the surviving fraction (CAMPTOTHECIN [11]; 5 nM) of the same test system?
Its surviving fraction is 0.739 ± 0.034.

What about the surviving fraction (CAMPTOTHECIN [11]; 10 nM) of the same test system?
Its surviving fraction is 0.361 ± 0.0046.

What about the surviving fraction (CAMPTOTHECIN [11]; 50 nM) of the same test system?
The surviving fraction was 0.377 ± 0.014.

What about the surviving fraction (CAMPTOTHECIN [11]; 100 nM) of the same test system?
Its surviving fraction is 0.26 ± 0.022.

What about the surviving fraction (CAMPTOTHECIN [11]; 500 nM) of the same test system?
Its surviving fraction is 0.0953 ± 0.016.

And the surviving fraction (CAMPTOTHECIN [11]; 1000 nM)?
The surviving fraction was 0.0837 ± 0.0075.

And the surviving fraction (YM155 [12]; 0.5 nM)?
Its surviving fraction is 1.03 ± 0.021.

And the surviving fraction (YM155 [12]; 1 nM)?
The surviving fraction was 0.954 ± 0.035.

What about the surviving fraction (YM155 [12]; 5 nM) of the same test system?
The surviving fraction was 0.433 ± 0.0064.

And the surviving fraction (YM155 [12]; 10 nM)?
Its surviving fraction is 0.237 ± 0.017.

What about the surviving fraction (YM155 [12]; 50 nM) of the same test system?
Its surviving fraction is 0.063 ± 0.0027.

What about the surviving fraction (YM155 [12]; 100 nM) of the same test system?
The surviving fraction was 0.0373 ± 0.0021.

What about the surviving fraction (YM155 [12]; 500 nM) of the same test system?
Its surviving fraction is 0.0277 ± 0.00058.

And the surviving fraction (YM155 [12]; 1000 nM)?
The surviving fraction was 0.0297 ± 0.00058.

What about the surviving fraction (CELECOXIB; 0.5 nM) of the same test system?
The surviving fraction was 1.039 ± 0.0011.

What about the surviving fraction (CELECOXIB; 1 nM) of the same test system?
Its surviving fraction is 1.06 ± 0.011.

And the surviving fraction (CELECOXIB; 5 nM)?
Its surviving fraction is 1.038 ± 0.0067.

And the surviving fraction (CELECOXIB; 10 nM)?
The surviving fraction was 1.05 ± 0.014.

And the surviving fraction (CELECOXIB; 50 nM)?
The surviving fraction was 0.995 ± 0.02.

And the surviving fraction (CELECOXIB; 100 nM)?
Its surviving fraction is 1.011 ± 0.008.

What about the surviving fraction (CELECOXIB; 500 nM) of the same test system?
The surviving fraction was 1.02 ± 0.012.

And the surviving fraction (CELECOXIB; 1000 nM)?
The surviving fraction was 1 ± 0.021.

And the surviving fraction (GEFITINIB; 0.5 nM)?
The surviving fraction was 1.05 ± 0.016.

What about the surviving fraction (GEFITINIB; 1 nM) of the same test system?
Its surviving fraction is 1.05 ± 0.035.

And the surviving fraction (GEFITINIB; 5 nM)?
The surviving fraction was 1.05 ± 0.069.

What about the surviving fraction (GEFITINIB; 10 nM) of the same test system?
The surviving fraction was 1.11 ± 0.036.

What about the surviving fraction (GEFITINIB; 50 nM) of the same test system?
Its surviving fraction is 1.01 ± 0.029.

What about the surviving fraction (GEFITINIB; 100 nM) of the same test system?
Its surviving fraction is 1.03 ± 0.028.

What about the surviving fraction (GEFITINIB; 500 nM) of the same test system?
The surviving fraction was 1.042 ± 0.0056.

And the surviving fraction (GEFITINIB; 1000 nM)?
Its surviving fraction is 1.01 ± 0.034.

And the surviving fraction ([13]; 0.5 nM)?
Its surviving fraction is 0.997 ± 0.026.

What about the surviving fraction ([13]; 1 nM) of the same test system?
The surviving fraction was 1.04 ± 0.017.

And the surviving fraction ([13]; 5 nM)?
The surviving fraction was 1.05 ± 0.017.

What about the surviving fraction ([13]; 10 nM) of the same test system?
The surviving fraction was 1.03 ± 0.019.

And the surviving fraction ([13]; 50 nM)?
The surviving fraction was 1.022 ± 0.0036.

And the surviving fraction ([13]; 100 nM)?
The surviving fraction was 1 ± 0.041.

And the surviving fraction ([13]; 500 nM)?
The surviving fraction was 0.9707 ± 0.0071.

And the surviving fraction ([13]; 1000 nM)?
The surviving fraction was 0.958 ± 0.024.

And the surviving fraction (OSI-906 [14]; 0.5 nM)?
Its surviving fraction is 1 ± 0.042.

And the surviving fraction (OSI-906 [14]; 1 nM)?
Its surviving fraction is 1.02 ± 0.023.

What about the surviving fraction (OSI-906 [14]; 5 nM) of the same test system?
The surviving fraction was 1.02 ± 0.021.

And the surviving fraction (OSI-906 [14]; 10 nM)?
The surviving fraction was 1 ± 0.017.

What about the surviving fraction (OSI-906 [14]; 50 nM) of the same test system?
The surviving fraction was 0.979 ± 0.039.

And the surviving fraction (OSI-906 [14]; 100 nM)?
Its surviving fraction is 0.921 ± 0.027.

And the surviving fraction (OSI-906 [14]; 500 nM)?
Its surviving fraction is 0.899 ± 0.03.

What about the surviving fraction (OSI-906 [14]; 1000 nM) of the same test system?
The surviving fraction was 0.869 ± 0.057.
